The target of this experiment is T1, Recombinant human renin (Homo sapiens, UniProt P00797).
T1 construct: isolate the active form (residues 67-406); made in house; host or cells: FreeStyle 293-F cells (transient expression of pcDNA3.1(+)/hREN)
T1 sequence (P00797 67-406): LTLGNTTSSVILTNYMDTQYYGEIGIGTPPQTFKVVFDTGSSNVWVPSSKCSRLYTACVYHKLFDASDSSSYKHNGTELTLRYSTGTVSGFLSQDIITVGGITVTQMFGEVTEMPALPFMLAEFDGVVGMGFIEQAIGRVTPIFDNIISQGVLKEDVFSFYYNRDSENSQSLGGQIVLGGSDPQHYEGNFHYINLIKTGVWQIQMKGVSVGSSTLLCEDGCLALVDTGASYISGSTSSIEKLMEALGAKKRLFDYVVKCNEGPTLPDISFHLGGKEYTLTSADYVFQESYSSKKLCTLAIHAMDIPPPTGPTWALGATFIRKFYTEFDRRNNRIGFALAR
As to the kind of experiment: In vitro enzymatic activity assay of Renin inhibitors (fluorescence, QXL520/HiLyteFluo488 peptide substrate). The class given is biochemical. The text has this: Test compounds in varying concentrations may be reacted with recombinant human renin in the presence of substrate, e.g., QXL520-γ-Abu-Ile-His-Pro-Phe-His-Leu-Val-Ile-His-Thr-Lys (HiLyteFluo488)-Arg-OH (Anaspec, San Jose, Calif.). The reaction can be followed kinetically using fluorescence (excitation λ=485 nm; emission λ=538 nm). Inhibition constants (IC50) may be calculated by non-linear curve fitting of the compound concentrations and fluorescence intensities to the standard IC50 equation.
Solutions of test compounds in varying concentrations (<2 mM final concentration) are prepared in dimethyl sulfoxide (DMSO) and then diluted into assay buffer comprising 50 mM Hepes, 1 mM EDTA, 1 mM DTT, 0.1 mg/ml BSA, 0.01% Brij35, pH 7.4. Alternatively, the assay can be performed with a high BSA concentration, wherein the buffer contains an additional 2% BSA.
Recombinant human renin (3 nM final concentration) is added to the dilutions and pre-incubated with the compounds for 10 minutes at 37° C. As described in Examples A-C above, human Renin can be obtained by expressing preprorenin (residue 1-406) in mammalian cells, treating the prorenin (residues 24-406) contained in the culture supernatant with trypsin, and isolate the active form (residues 67-406). After pre-incubation, the reaction is initiated with 1 μM of substrate QXL520-γ-Abu-Ile-His-Pro-Phe-His-Leu-Val-Ile-His-Thr-Lys (HiLyteFluo488)-Arg-OH (Anaspec, San Jose, Calif.). The final DMSO in the assay is 5%. The total volume of the reaction mixture is 20 μL, which can be placed on Greiner 384-well small volume plates.
Renin activity may be determined via fluorescence (excitation λ=485 nm; emission λ=538 nm), e.g., on a Molecular Devices SPECTROmax GEMINI XPS. The fluorescence intensity is determined upon the addition of substrate and determined again after incubation at 37° C. for one hour. The fluorescence intensity of a blank (no inhibition) using vehicle alone is also determined. Renin activity is linearly proportional to the change in fluorescence observed (final−initial).
The percent inhibition of Renin at a given compound concentration is defined as:
100%×[1−(Fcompound/Fblank)]
where Fcompound is the observed fluorescence at a given concentration of test compound and Fblank is the observed fluorescence in the presence of vehicle alone.
The pIC50 value (negative log of the molar concentration of the compound that produces 50% inhibition) of a test compound is calculated by non-linear least squares curve fitting of the equation: […]
to percent inhibition versus compound concentration. The 50% inhibitory concentration (IC50) of a test compound is calculated by raising 10 to the negative pIC50 (10^−pIC50).

Setting [1] is: recombinant human renin 3 nM, 1 μM substrate, 37° C., pH 7.4, values given as ranges, read-out: IC50 of Exemplified Compounds Against Renin.

Read-outs that look alike come from different tables or passages of the source.

Turning to `O=C(CC(c1ccccc1)c1ccccc1)N1CCNC[C@H]1Cc1ccccc1` [Example 2, (R)-1-(2-Benzylpiperazin-1-yl)-3,3-diphenylpropan-1-one], under setting [1], the IC50 is 0.5 to 5 µM. On the same count and under the same terms, the result for `O=C(CCc1ccccc1Oc1ccc(Cl)cc1)N1CCNC[C@H]1Cc1ccccc1` [Example 22, (R)-1-(2-Benzylpiperazin-1-yl)-3-(2-(4-chlorophenoxy)phenyl)propan-1-one] reads below 0.5 µM. The same measure, in the same setting: in the case of `O=C(CCc1ccccc1Oc1ccccc1)N1CCNC[C@H]1Cc1ccc(OCc2nnn[nH]2)cc1` [Example 85, (R)-1-(2-(4-((1H-tetrazol-5-yl)methoxy)benzyl)piperazin-1-yl)-3-(2-phenoxyphenyl)propan-1-one] it was below 0.5 µM.

With `CC(=O)NCCc1ccccc1Oc1ccccc1CCC(=O)N1CCNC[C@H]1Cc1ccc(OC(=O)N2CCOCC2)cc1` [Example 80, (R)-4-((1-(3-(2-(2-(2-acetamidoethyl)phenoxy)phenyl)propanoyl)piperazin-2-yl)methyl)phenyl morpholine-4-carboxylate], the IC50 was in the range of 0.5 to 5 µM. In the case of `CCN(CC)C(=O)Oc1ccc(C[C@@H]2CNCCN2C(=O)CCc2ccccc2Oc2ccccc2)cc1` [Example 74, (R)-4-((1-(3-(2-phenoxyphenyl)propanoyl)piperazin-2-yl)methyl)-phenyl diethylcarbamate], the IC50 lay within 0.5 to 5 µM. For `CC(=O)NCCc1ccccc1Oc1ccccc1CCC(=O)N1CCNC[C@H]1Cc1ccccc1` [Example 24, (R)—N-(2-(2-(3-(2-Benzylpiperazin-1-yl)-3-oxopropyl)phenoxy)phenethyl)acetamide], the IC50 under setting [1] is below 0.5 µM. Still for that read-out and setting: in the case of `CC(=O)NCc1cc(C(F)(F)F)ccc1Oc1cc(C)ccc1CCC(=O)N1CCNC[C@H]1Cc1ccccc1` [Example 45, (R)—N-(2-(2-(3-(2-benzylpiperazin-1-yl)-3-oxopropyl)-5-methylphenoxy)-5-(trifluoromethyl)benzyl)acetamide] it was 0.5 to 5 µM; in that of `CC(=O)NCCc1ccccc1Oc1cc(C)ccc1CCC(=O)N1CCNC[C@H]1Cc1ccccc1` [Example 28, (R)—N-(2-(2-(3-(2-Benzylpiperazin-1-yl)-3-oxopropyl)-5-methylphenoxy)phenethyl)acetamide], below 0.5 µM. On to `COc1ccccc1-c1ccccc1CC(=O)N1CCNC[C@H]1Cc1ccccc1` [Example 9, 1-((R)-2-Benzylpiperazin-1-yl)-2-(2′-methoxybiphenyl-2-yl)ethanone], for which the IC50 under setting [1] is 5 to 50 µM. As to `CN1CCN(C(=O)Oc2ccc(C[C@@H]3CNCCN3C(=O)CCc3ccccc3Oc3ccccc3)cc2)CC1` [Example 72, (R)-4-((1-(3-(2-phenoxyphenyl)propanoyl)piperazin-2-yl)methyl)-phenyl 4-methylpiperazine-1-carboxylate], the IC50 is 0.5 to 5 µM. In the case of `O=C(Cc1ccccc1-c1ccc(F)cc1)N1CCNC[C@H]1Cc1ccccc1` [Example 3, (R)-1-(2-Benzylpiperazin-1-yl)-2-(4′-fluorobiphenyl-2-yl)ethanone], under setting [1], the IC50 lay within 0.5 to 5 µM. On the same count and under the same terms, the result for `O=C(CCc1ccccc1)N1CCNC[C@H]1Cc1ccccc1` [Example 1, (R)-1-(2-Benzylpiperazin-1-yl)-3-phenylpropan-1-one] reads 5 to 50 µM; that for `O=C(COc1cccc(Cc2ccccc2)c1)N1CCNC[C@H]1Cc1ccccc1` [Example 62, (R)-2-(3-benzylphenoxy)-1-(2-benzylpiperazin-1-yl)ethanone], 5 to 50 µM; that for `COC(=O)COc1ccc(C[C@@H]2CNCCN2C(=O)CCc2ccccc2Oc2ccccc2)cc1` [Example 69, (R)-methyl 2-(4-((1-(3-(2-phenoxyphenyl)propanoyl)piperazin-2-yl)methyl)phenoxy)acetate], 0.5 to 5 µM. `O=C(CCc1ccccc1Cc1ccccc1)N1CCNC[C@H]1Cc1ccccc1` [Example 53, (R)-3-(2-benzylphenyl)-1-(2-benzylpiperazin-1-yl)propan-1-one]: under setting [1], the IC50 was below 0.5 µM. On the same count and under the same terms, the result for `CC(=O)NCCc1ccccc1Cc1ccccc1CCC(=O)N1CCNC[C@H]1Cc1ccc(O)cc1` [Example 88, (R)—N-(2-(2-(3-(2-(4-hydroxybenzyl)piperazin-1-yl)-3-oxopropyl)benzyl)phenethyl)acetamide] reads below 0.5 µM. In the case of `O=C(Oc1ccc(C[C@@H]2CNCCN2C(=O)CCc2ccccc2Oc2ccccc2)cc1)N1CCOCC1` [Example 73, (R)-4-((1-(3-(2-phenoxyphenyl)propanoyl)piperazin-2-yl)methyl)-phenyl morpholine-4-carboxylate], the IC50 is 0.5 to 5 µM.

As for `CC(=O)NCc1ccccc1Oc1ccccc1CCC(=O)N1CCNC[C@H]1Cc1ccccc1` [Example 29, (R)—N-(2-(2-(3-(2-Benzylpiperazin-1-yl)-3-oxopropyl)phenoxy)benzyl)acetamide], the IC50 under setting [1] is below 0.5 µM. Still for that read-out and setting: in the case of `COC(=O)CCc1ccccc1Oc1ccccc1CCC(=O)N1CCNC[C@H]1Cc1ccccc1` [Example 67, (R)-methyl 3-(2-(2-(3-(2-benzylpiperazin-1-yl)-3-oxopropyl)phenoxy)phenyl)propanoate] it was below 0.5 µM; in that of `O=C(CCC(=O)N1CCNC[C@H]1Cc1ccccc1)N(c1ccccc1)c1ccccc1` [Example 60, (R)-4-(2-benzylpiperazin-1-yl)-4-oxo-N,N-diphenylbutanamide], 0.5 to 5 µM; in that of `CCC(=O)NCCc1ccccc1Oc1ccccc1CCC(=O)N1CCNC[C@H]1Cc1ccccc1` [Example 78, (R)—N-(2-(2-(3-(2-benzylpiperazin-1-yl)-3-oxopropyl)phenoxy)phenethyl)propionamide], below 0.5 µM.

For `O=C(CCc1ccccc1Oc1cccc(CO)c1)N1CCNC[C@H]1Cc1ccccc1` [Example 35, (R)-1-(2-Benzylpiperazin-1-yl)-3-(2-(3-(hydroxymethyl)phenoxy)phenyl)propan-1-one], the IC50 under setting [1] is 0.5 to 5 µM. Still for that read-out and setting: in the case of `CC(=O)NCCc1ccccc1Cc1ccccc1CCC(=O)N1CCNC[C@H]1Cc1ccccc1` [Example 84, (R)—N-(2-(2-(3-(2-benzylpiperazin-1-yl)-3-oxopropyl)benzyl)phenethyl)acetamide] it was below 0.5 µM; in that of `CC(=O)Nc1cccc(Oc2ccccc2CCC(=O)N2CCNC[C@H]2Cc2ccccc2)c1` [Example 33, (R)—N-(3-(2-(3-(2-Benzylpiperazin-1-yl)-3-oxopropyl)phenoxy)phenyl)acetamide], 0.5 to 5 µM; in that of `O=C(CCc1ccccc1Oc1ccccc1)N1CCNC[C@H]1Cc1ccccc1` [Example 7, (R)-1-(2-Benzylpiperazin-1-yl)-3-(2-phenoxyphenyl)propan-1-one], below 0.5 µM. As to `Cc1cccc(Oc2ccccc2CCC(=O)N2CCNC[C@H]2Cc2ccccc2)c1` [Example 23, (R)-1-(2-benzylpiperazin-1-yl)-3-(2-(m-tolyloxy)phenyl)propan-1-one], the IC50 under setting [1] was below 0.5 µM. `NC(=O)CCc1ccccc1Oc1ccccc1CCC(=O)N1CCNC[C@H]1Cc1ccccc1` [Example 83, (R)-3-(2-(2-(3-(2-benzylpiperazin-1-yl)-3-oxopropyl)phenoxy)phenyl)propanamide]: the IC50 under setting [1] was below 0.5 µM. Same read-out and setting: in the case of `CC(=O)NCc1cccnc1Oc1ccccc1CCC(=O)N1CCNC[C@H]1Cc1ccccc1` [Example 38, (R)—N-((2-(2-(3-(2-benzylpiperazin-1-yl)-3-oxopropyl)phenoxy)-pyridin-3-yl)methyl)acetamide] it was 0.5 to 5 µM.

The values are drawn from patent US20100210635A1, “RENIN INHIBITORS” (Takeda Pharmaceutical Company Limited, priority 2006, published 2010).
